# System: subcutaneous tissue
# Details: dog, in vivo
# Procedure: The adaptability to an organism was tested in respect of the medical adhesive according to one embodiment of the present invention.
# Three incision each having a length of 2 cm in the direction of the body axis were formed on the back of a dog anesthetized with acepromazine (0.5 mg/Kg) and pentobarbital (25 mg/Kg), and each of the subcutaneous regions of the incision portions was enlarged with scissors so as to have a diameter of about 2 cm.
# Three kinds of treatments (A), (B) and (C) given below were applied to each of the incision portions:
# (A) Dimethyl sulfoxide used as a reference substance was injected in an amount of 0.5 ml, and irradiation with an ultraviolet ray was not performed.
# (B) The adhesive was injected in an amount of 0.5 ml, and irradiation with an ultraviolet ray was not performed.
# (C) The adhesive was injected in an amount of 0.5 ml, and irradiation with an ultraviolet ray was performed.
# One week later, each portion was collected under a general anesthesia so as to carry out the histological analysis.
compound,measurement,setting,value
"C[S+](C)[O-] [(A) reference, Dimethyl sulfoxide]",Adaptability to organism (recognition as foreign matter),,recognized as a foreign matter within the organism
same,Clinical inflammation reaction,,not recognized
same,"Inflammation reaction, histological",,prominent histologically
same,"Clinical inflammation reaction (pain), Second day",sc,±
same,"Clinical inflammation reaction (pain), Third day",sc,−
